Measured values taken from publication PMC9994683 (PLOS ONE, 2023).

Legend:
[1] = test system: Escherichia coli (ATCC 25922); experiment: Disc-diffusion assay; type: cell-based
[2] = test system: Listeria monocytogenes (ATCC 35152); experiment: Disc-diffusion assay; type: cell-based; conditions: ATCC35152, extracts 50 μg/mL, vancomycin 30 μg/disc, ciprofloxacin 5 μg/disc, read-out: zone of inhibition (diameter), Disc, L. mono.
Description: (§1) The bactericidalpotential of 50μg/mL of A. indica L. and M. azedarach L. leaves extracts were evaluated using the disc and well-diffusion assays by the formation of inhibition zone. Then, the broth-microdilution approach was used to estimate the values of minimum inhibitory concentration (MIC).
(§2) The antibacterial actions of extracts were examined against Escherichia coli (ATCC 25922), Salmonella enterica (ATCC 14028), Pseudomonas aeruginosa (ATCC 10145), representing Gram-negative (GN) bacteria; Listeria monocytogenes (ATCC 35152), Staphylococcus aureus (ATCC 43300) and Enterococcus faecalis (ATCC 43845), representing Gram-positive (GP) bacteria. Each bacterial culture stock preserved in -80°C was injected into a tube containing 20 ml of Trypticase soya broth (TSB). Then, all inoculated tubes were incubated for 24 h at 37°C. Dilution of the cultures with Mueller–Hinton Broth (MHB) was performed corresponding to ten folds serial dilution upto 10^-8CFU/ml of the bacterial culture.
(§3) 2.6.2.1. Disc-diffusion method. The technique was conducted based upon the Clinical and Laboratory Standards Institute (CLSI) (M02-A11). The prepared bacterial inoculum suspension was briefly swabbed onto MHA medium with a sterile cotton swab. Next, sterile discs made of filter paper (6 mm) (Maidstone, UK) were saturated with 50μg/mLof the tested samples. Both Ciprofloxacin (5μg/disc) and Vancomycin (30μg/disc) were used as controls. The saturated discs were lightly pushed on the top surfaces MHA and incubated with bacteria overnight at 37°C. A produced zone of inhibition (ZOI) was measured and given in millimeters (mm).

[3] = test system: Salmonella enterica (ATCC 14028); experiment: Disc-diffusion assay; type: cell-based; conditions: ATCC14028, extracts 50 μg/mL, vancomycin 30 μg/disc, ciprofloxacin 5 μg/disc, read-out: zone of inhibition (diameter), Disc, S. enterica
Description: as §1, §2, §3

[4] = test system: Pseudomonas aeruginosa (ATCC 10145); experiment: Disc-diffusion assay; type: cell-based
[5] = test system: Staphylococcus aureus (ATCC 43300); experiment: Disc-diffusion assay; type: cell-based
[6] = test system: Enterococcus faecalis (ATCC 43845); experiment: Disc-diffusion assay; type: cell-based
[7] = test system: Escherichia coli (ATCC 25922); experiment: Well-diffusion assay; type: cell-based; conditions: extracts 50 μg/mL, 50 μL per well, within 24 h
[8] = test system: Salmonella enterica (ATCC 14028); experiment: Well-diffusion assay; type: cell-based; conditions: extracts 50 μg/mL, 50 μL per well, within 24 h
Description: as §1, §2
2.6.2.2. Well-diffusion method. Using sanitized needle tips, a 6 mm-diameter hole was drilled. Afterward when, a sterilized cotton swab was employed to smear the inoculum standard solution of the examined microbes onto the medium. The specimen was then transferred to each well in intervals of 50 μL. Two reference antibiotic drugs (vancomycin and ciprofloxacin) served as positive controls. […]

[9] = test system: Pseudomonas aeruginosa (ATCC 10145); experiment: Well-diffusion assay; type: cell-based; conditions: extracts 50 μg/mL, 50 μL per well, within 24 h
[10] = test system: Staphylococcus aureus (ATCC 43300); experiment: Well-diffusion assay; type: cell-based; conditions: extracts 50 μg/mL, 50 μL per well, within 24 h
[11] = test system: Listeria monocytogenes (ATCC 35152); experiment: Well-diffusion assay; type: cell-based; conditions: extracts 50 μg/mL, 50 μL per well, within 24 h
[12] = test system: Enterococcus faecalis (ATCC 43845); experiment: Well-diffusion assay; type: cell-based; conditions: extracts 50 μg/mL, 50 μL per well, within 24 h
[13] = test system: Vero E6 cells; experiment: MTT cytotoxicity assay (CC50) in Vero E6 cells; type: cell-based, African green monkey; conditions: reference drug control
[14] = test system: hCoV-19/Egypt/NRC-3/2020 SARS-CoV-2 virus; experiment: Anti-SARS-CoV-2 activity (IC50), crystal violet assay in Vero-E6 cells; type: cell-based; conditions: SARS-CoV-2 in Vero E6 cells, reference drug control

| Structure (SMILES) | zone of inhibition at 5 µg/disc ([1]; ATCC25922, extracts 50 μg/mL, vancomycin 30 μg/disc, ciprofloxacin 5 μg/disc, read-out: zone of inhibition (diameter), Disc, E. coli) [mm] | zone of inhibition at 5 µg/disc [2] [mm] | zone of inhibition at 5 µg/disc [3] [mm] | zone of inhibition at 5 µg/disc ([4]; ATCC10145, extracts 50 μg/mL, vancomycin 30 μg/disc, ciprofloxacin 5 μg/disc, read-out: zone of inhibition (diameter), Disc, P. aeruginosa) [mm] | zone of inhibition at 5 µg/disc ([5]; ATCC43300, extracts 50 μg/mL, vancomycin 30 μg/disc, ciprofloxacin 5 μg/disc, read-out: zone of inhibition (diameter), Disc, S. aureus) [mm] | zone of inhibition at 5 µg/disc ([6]; ATCC43845, extracts 50 μg/mL, vancomycin 30 μg/disc, ciprofloxacin 5 μg/disc, read-out: zone of inhibition (diameter), Disc, E. faecalis) [mm] | zone of inhibition (diameter), Well, E. coli [7] [mm] | zone of inhibition (diameter), Well, S. enterica [8] [mm] | zone of inhibition (diameter), Well, P. aeruginosa [9] [mm] | zone of inhibition (diameter), Well, S. aureus [10] [mm] | zone of inhibition (diameter), Well, L. mono. [11] [mm] | zone of inhibition (diameter), Well, E. faecalis [12] [mm] | zone of inhibition at 30 µg/disc ([1]; ATCC25922, read-out: zone of inhibition (diameter), Disc, E. coli) [mm] | zone of inhibition at 30 µg/disc [2] [mm] | zone of inhibition at 30 µg/disc [3] [mm] | zone of inhibition at 30 µg/disc ([4]; ATCC10145, read-out: zone of inhibition (diameter), Disc, P. aeruginosa) [mm] | zone of inhibition at 30 µg/disc ([5]; ATCC43300, read-out: zone of inhibition (diameter), Disc, S. aureus) [mm] | zone of inhibition at 30 µg/disc ([6]; ATCC43845, read-out: zone of inhibition (diameter), Disc, E. faecalis) [mm] | CC50 [13] [µM] | IC50 [14] [µM] |
| --- | --- | --- | --- | --- | --- | --- | --- | --- | --- | --- | --- | --- | --- | --- | --- | --- | --- | --- | --- | --- |
| O=C(O)c1cn(C2CC2)c2cc(N3CCNCC3)c(F)cc2c1=O [Cipro., ciprofloxacin] | 14 ± 0.28 | 6 ± 0.25 | 11 ± 0.15 | 9 ± 0.15 | 8 ± 0.24 | 9 ± 0.19 | 16 ±0.19 | 12 ±0.31 | 11 ±0.31 | 10 ±0.29 | 8 ±0.18 | 10 ±0.15 | – | – | – | – | – | – | – | – |
| CN[C@H](CC(C)C)C(=O)N[C@H]1C(=O)N[C@@H](CC(N)=O)C(=O)N[C@H]2C(=O)N[C@H]3C(=O)N[C@H](C(=O)N[C@H](C(=O)O)c4cc(O)cc(O)c4-c4cc3ccc4O)[C@H](O)c3ccc(c(Cl)c3)Oc3cc2cc(c3O[C@@H]2O[C@H](CO)[C@@H](O)[C@H](O)[C@H]2O[C@H]2C[C@](C)(N)[C@H](O)[C@H](C)O2)Oc2ccc(cc2Cl)[C@H]1O [Vanco., vancomycin] | – | – | – | – | – | – | 10 ±0.23 | 9 ±0.24 | 8 ±0.24 | 14 ±0.27 | 11 ±0.11 | 13 ±0.23 | 9 ± 0.11 | 9 ± 0.43 | 7 ± 0.21 | 6 ± 0.21 | 12 ± 0.22 | 11 ± 0.31 | – | – |
| CCC(CC)COC(=O)[C@H](C)N[P@](=O)(OC[C@H]1O[C@@](C#N)(c2ccc3c(N)ncnn23)[C@H](O)[C@@H]1O)Oc1ccccc1 [remedesivir] | – | – | – | – | – | – | – | – | – | – | – | – | – | – | – | – | – | – | 473 | 6.72 |
